Reference: ChEMBL document CHEMBL4808193, “[11]-Chaetoglobosins from Pseudeurotium bakeri Induce G2/M Cell Cycle Arrest and Apoptosis in Human Cancer Cells” (J Nat Prod, 2021)

Experiments:
[1] = test system: A-427; experiment: Cell cycle arrest in human A-427 cells assessed as accumulation at G2/M phase at 4 uM measured after 24 hrs by PI staining based flow cytometry (reference value: 17.34%); assay type: functional
[2] = test system: HT-29; experiment: Cytotoxicity against human HT-29 cells assessed as reduction in cell viability by MTT assay; assay type: functional, cell-based
[3] = test system: HCT-116; experiment: Cytotoxicity against human HCT-116 cells assessed as reduction in cell viability by MTT assay; assay type: functional, cell-based
[4] = test system: A-427; experiment: Cell cycle arrest in human A-427 cells assessed as accumulation at G0/G1 phase at 4 uM measured after 24 hrs by PI staining based flow cytometry (reference value: 45.36%); assay type: functional
[5] = test system: A549; experiment: Cytotoxicity against human A549 cells assessed as reduction in cell viability by MTT assay; assay type: functional, cell-based
[6] = test system: A-427; experiment: Induction of apoptosis in human A-427 cells assessed as late apoptotic cells at 4 uM measured after 24 hrs by Annexin V-FITC/propidium iodide staining based flow cytometric analysis (reference value: 1.70%); assay type: functional
[7] = test system: L02; experiment: Cytotoxicity against human L02 cells assessed as reduction in cell viability by MTT assay; assay type: cell-based
[8] = test system: MCF7; experiment: Cell cycle arrest in human MCF7 cells assessed as accumulation at S phase at 15 uM measured after 24 hrs by PI staining based flow cytometry (reference value: 22.83%); assay type: functional
[9] = test system: A-427; experiment: Cell cycle arrest in human A-427 cells assessed as accumulation at G0/G1 phase at 6 uM measured after 24 hrs by PI staining based flow cytometry (reference value: 45.36%); assay type: functional
[10] = test system: MCF7; experiment: Induction of apoptosis in human MCF7 cells assessed as early apoptotic cells at 15 uM measured after 24 hrs by Annexin V-FITC/propidium iodide staining based flow cytometric analysis (reference value: 2.97%); assay type: functional
[11] = test system: MCF7; experiment: Cytotoxicity against human MCF7 cells assessed as reduction in cell viability by MTT assay; assay type: functional, cell-based
[12] = test system: A-427; experiment: Cell cycle arrest in human A-427 cells assessed as accumulation at G0/G1 phase at 2 uM measured after 24 hrs by PI staining based flow cytometry (reference value: 45.36%); assay type: functional
[13] = test system: A-427; experiment: Cell cycle arrest in human A-427 cells assessed as accumulation at G2/M phase at 2 uM measured after 24 hrs by PI staining based flow cytometry (reference value: 17.34%); assay type: functional
[14] = test system: HepG2; experiment: Cytotoxicity against human HepG2 cells assessed as reduction in cell viability by MTT assay; assay type: functional, cell-based
[15] = test system: MCF7; experiment: Cell cycle arrest in human MCF7 cells assessed as accumulation at G0/G1 phase at 15 uM measured after 24 hrs by PI staining based flow cytometry (reference value: 62.38%); assay type: functional
[16] = test system: MCF7; experiment: Cell cycle arrest in human MCF7 cells assessed as accumulation at G2/M phase at 10 uM measured after 24 hrs by PI staining based flow cytometry (reference value: 14.79%); assay type: functional
[17] = test system: MCF7; experiment: Induction of apoptosis in human MCF7 cells assessed as early apoptotic cells at 5 uM measured after 24 hrs by Annexin V-FITC/propidium iodide staining based flow cytometric analysis (reference value: 2.97%); assay type: functional
[18] = test system: MCF7; experiment: Cell cycle arrest in human MCF7 cells assessed as accumulation at S phase at 10 uM measured after 24 hrs by PI staining based flow cytometry (reference value: 22.83%; assay type: functional
[19] = test system: MCF7; experiment: Cell cycle arrest in human MCF7 cells assessed as accumulation at G0/G1 phase at 5 uM measured after 24 hrs by PI staining based flow cytometry (reference value: 62.38%); assay type: functional
[20] = test system: MCF7; experiment: Induction of apoptosis in human MCF7 cells assessed as late apoptotic cells at 5 uM measured after 24 hrs by Annexin V-FITC/propidium iodide staining based flow cytometric analysis (reference value: 0.76%); assay type: functional
[21] = test system: A-427; experiment: Cell cycle arrest in human A-427 cells assessed as accumulation at S phase at 6 uM measured after 24 hrs by PI staining based flow cytometry (reference value: 37.30%); assay type: functional
[22] = test system: A-427; experiment: Induction of apoptosis in human A-427 cells assessed as early apoptotic cells at 4 uM measured after 24 hrs by Annexin V-FITC/propidium iodide staining based flow cytometric analysis (reference value: 4.50%); assay type: functional
[23] = test system: MCF7; experiment: Induction of apoptosis in human MCF7 cells assessed as early apoptotic cells at 10 uM measured after 24 hrs by Annexin V-FITC/propidium iodide staining based flow cytometric analysis (reference value: 2.97%); assay type: functional
[24] = test system: A-427; experiment: Induction of apoptosis in human A-427 cells assessed as early apoptotic cells at 2 uM measured after 24 hrs by Annexin V-FITC/propidium iodide staining based flow cytometric analysis (reference value: 4.50%); assay type: functional
[25] = test system: A-427; experiment: Induction of apoptosis in human A-427 cells assessed as late apoptotic cells at 6 uM measured after 24 hrs by Annexin V-FITC/propidium iodide staining based flow cytometric analysis (reference value: 1.70%); assay type: functional
[26] = test system: A-427; experiment: Induction of apoptosis in human A-427 cells assessed as late apoptotic cells at 2 uM measured after 24 hrs by Annexin V-FITC/propidium iodide staining based flow cytometric analysis (reference value: 1.70%); assay type: functional
[27] = test system: A-427; experiment: Cell cycle arrest in human A-427 cells assessed as accumulation at G2/M phase at 6 uM measured after 24 hrs by PI staining based flow cytometry (reference value: 17.34%); assay type: functional
[28] = test system: A-427; experiment: Cell cycle arrest in human A-427 cells assessed as accumulation at S phase at 4 uM measured after 24 hrs by PI staining based flow cytometry (reference value: 37.30%); assay type: functional
[29] = test system: A-427; experiment: Cytotoxicity against human A-427 cells assessed as reduction in cell viability by MTT assay; assay type: functional, cell-based
[30] = test system: MCF7; experiment: Cell cycle arrest in human MCF7 cells assessed as accumulation at S phase at 5 uM measured after 24 hrs by PI staining based flow cytometry (reference value: 22.83%); assay type: functional
[31] = test system: A-427; experiment: Cell cycle arrest in human A-427 cells assessed as accumulation at S phase at 2 uM measured after 24 hrs by PI staining based flow cytometry (reference value: 37.30%); assay type: functional
[32] = test system: MCF7; experiment: Cell cycle arrest in human MCF7 cells assessed as accumulation at G0/G1 phase at 10 uM measured after 24 hrs by PI staining based flow cytometry (reference value: 62.38%); assay type: functional
[33] = test system: MCF7; experiment: Induction of apoptosis in human MCF7 cells assessed as late apoptotic cells at 15 uM measured after 24 hrs by Annexin V-FITC/propidium iodide staining based flow cytometric analysis (reference value: 0.76%); assay type: functional
[34] = test system: MCF7; experiment: Cell cycle arrest in human MCF7 cells assessed as accumulation at G2/M phase at 5 uM measured after 24 hrs by PI staining based flow cytometry (reference value: 14.79%); assay type: functional
[35] = test system: HeLa; experiment: Cytotoxicity against human HeLa cells assessed as reduction in cell viability by MTT assay; assay type: functional, cell-based
[36] = test system: MCF7; experiment: Cell cycle arrest in human MCF7 cells assessed as accumulation at G2/M phase at 15 uM measured after 24 hrs by PI staining based flow cytometry (reference value: 14.79%); assay type: functional
[37] = test system: A-427; experiment: Induction of apoptosis in human A-427 cells assessed as early apoptotic cells at 6 uM measured after 24 hrs by Annexin V-FITC/propidium iodide staining based flow cytometric analysis (reference value: 4.50%); assay type: functional
[38] = test system: MCF7; experiment: Induction of apoptosis in human MCF7 cells assessed as late apoptotic cells at 10 uM measured after 24 hrs by Annexin V-FITC/propidium iodide staining based flow cytometric analysis (reference value: 0.76%); assay type: functional

CC1=C[C@@H]2/C=C/C[C@H](C)CC(=O)/C=C/C(=O)[C@]23C(=O)N[C@@H](Cc2c[nH]c4ccccc24)[C@@H]3[C@@H]1C
Activity [1]: 47.21% | IC50 [2]: 8.9 µM | IC50 [3]: 12.2 µM | Activity [4]: 36.51% | IC50 [5]: 9.5 µM | Activity [6]: 25.77% | IC50 [7]: 36.3 µM | Activity [8]: 8.11% | Activity [9]: 33.91% | Activity [10]: 32.79% | IC50 [11]: 6.5 µM | Activity [12]: 43.99% | Activity [13]: 36.13% | IC50 [14]: 9.1 µM | Activity [15]: 36.2% | Activity [16]: 51.9% | Activity [17]: 11.22% | Activity [18]: 7.12% | Activity [19]: 49.01% | Activity [20]: 5.79% | Activity [21]: 16.51% | Activity [22]: 19.74% | Activity [23]: 19.17% | Activity [24]: 8.26% | Activity [25]: 29.64% | Activity [26]: 14.29% | Activity [27]: 49.58% | Activity [28]: 16.28% | IC50 [29]: 4.8 µM | Activity [30]: 8.32% | Activity [31]: 19.88% | Activity [32]: 40.98% | Activity [33]: 13.22% | Activity [34]: 42.67% | IC50 [35]: 8.6 µM | Activity [36]: 55.69% | Activity [37]: 24.44% | Activity [38]: 6.99%
